Columns and labels:
MOLM14 and KOPN8 cells = assay: Validation of ABT-199/ABT-737 + AS/ART-838 combinations, alamarBlue, Chou-Talalay; type: cell-based, human; settings: MOLM14 and KOPN8, AS or ART-838 at IC50, 48 h
Method: FIGS. 10A-10B. Validation of cytotoxicity of ABT-199/ABT-737+AS/ART-838 combinations by alamarBlue assay. […] Each experiment was performed in triplicate. All data points between 0.1-99.9% growth inhibition were analyzed using the methods of Chou and Talalay and combination indices (CIs) calculated. CIs were graphed against the fractional effect (FE; the fraction of cells inhibited at each concentration). CI<1 indicates synergy, CI=1, additivity, CI>1, antagonism.
(§1) MOLM14 or KOPN8 cells were seeded in 96-well plates as described above for alamarBlue assays. Cells were treated with a certain concentrations of AS, or ART-838 or DHA, in combination with a range of concentrations of ABT-199 or ABT-263 or ABT-737. AlamarBlue assays were performed as described above. Each set of drugs or drug combinations was tested in triplicate. Chou-Talalay drug combination analysis was performed as above.
Cytotoxicity of the individual drugs and combinations was assessed using alamarBlue fluorescence, a more sensitive indicator of cell metabolism (as a surrogate for cell number) than MTS.
Drug combination interactions were assessed using the methods of Chou-Talalay, a more robust measure of synergy than the Bliss independence model. The Chou-Talalay method, however, can only be used at drug effect levels from 0.1-99.9%. […]

RCH-ACV = assay: Kinase inhibitor drug combination screen (MTS, Bliss-independence analysis)
Source text: (§2) Hits were ranked by the observed inhibition over the Bliss independence prediction.
(§3) Combinations with positive values for this Bliss difference were considered synergistic, values near zero, additive, and negative values, antagonistic.

MOLM14 cells [1] = assay: Combinations of AS, ART-838 or DHA with BCL-2 inhibitors, alamarBlue, 48 h; type: cell-based, human
Method: FIGS. 11A-11C. Antileukemic efficacy of ABT-199, ABT-263 or ABT-737 combined with AS or ART-838. […] Each experiment was performed in triplicate.
FIG. 12. […] MOLM14 cells were treated with increasing concentrations of ABT-199, ABT-263 or ABT-737 without or with DHA (500 nM and 1 μM) for 48hrs. Then cytotoxicity was evaluated by alamarBlue assays. Each experiment was performed in triplicate.
as §1

KOPN8 = assay: Kinase inhibitor drug combination screen (MTS, Bliss-independence analysis)
Source text: as §2, §3

[2] = system: MOLM14, Kasumi-1, KOPN8 and RCH-ACV leukemia cell lines; assay: Kinase inhibitor drug combination screen, summary over the four leukemia cell lines; settings: for No. Cell Lines: cell lines synergistically inhibited (>10% over Bliss) by drug 1 combined with AS and/or ART-838; for average inhibition over the Bliss prediction: plus ART-838, average over synergistic cell lines; for average inhibition over the Bliss independence prediction: average over synergistic cell lines; for synergy with AS or ART-838: screens in four human leukemia cell lines
Source text: as §2, §3

MOLM14 = assay: Kinase inhibitor drug combination screen (MTS, Bliss-independence analysis)
Source text: as §2, §3

MOLM14 cells [3] = assay: Apoptosis (APC Annexin-V / 7-AAD, FACS); type: cell-based, human; settings: MOLM14, ABT-199 plus AS or ART-838, 24 hrs
Method: FIG. 13. […] MOLM14 cells were treated with ABT-199 and/or AS (upper panel) or ART-838 (lower panel) for 24 hrs. Cells were stained with APC Annexin-V and 7-AAD and analyzed by fluorescence-activated cell sorting (FACS) to assess apoptotic cells. The early apoptotic population was defined as APC Annexin-V (+) and 7-AAD (−). The total apoptotic population was defined as APC Annexin-V (+). Each experiment was performed in triplicate. […].
Drug or vehicle-treated cells (1-5×10^5/sample) were washed with cold PBS, resuspended in Annexin-V binding buffer, co-stained with 5 μl each of APC Annexin-V and 7-AAD viability dye (all from BioLegend, San Diego, Calif.), and incubated for 15 minutes at room temperature in the dark then stored on ice until analysis (<30 minutes). Stained cells were analyzed using the FL3 and FL4 channels of an Accuri C6 flow cytometer. ˜10,000 non-debris cellular events were collected per sample and analyzed, as for cell cycle. The Annexin-V^−/7-AAD^− population was designated “viable,” the Annexin-V^+/7-AAD^− population was designated “early apoptotic,” and the Annexin-V^+/7-AAD^+ population was designated “dying/dead” [47].

Kasumi-1 = assay: Kinase inhibitor drug combination screen (MTS, Bliss-independence analysis); settings: Kasumi-1, Drug 2 = ART-838 at approximate IC50, 48 h
Source text: as §2, §3

MOLM14 cells [4] = assay: ROS - mitochondrial superoxide (MitoSOX flow cytometry); type: cell-based, human; settings: MOLM14, drug alone, 2.25x IC50, 16 h
Method: FIGS. 4A-4D. […] CIs were computed as described above. CI<1 indicates synergy, CI=1, additivity, CI>1, antagonism. […] Cells were then loaded with 5 μM MitoSox for 30 min, washed, and analyzed by flow cytometry for MitoSox fluorescence (indicating mitochondrial superoxide) in the FL2 channel. […] Error bars represent the SEM of three independent experiments.

[5] = system: chemotherapy (doxorubicin, hydroxyurea, methotrexate, or vincristine)-resistant CEM (T-ALL) sub-lines; settings: reference [27]; cited from earlier work
[6] = Drug 2 = ART-838 at approximate IC50, 48 h
[7] = Drug 2 = AS at approximate IC50, 48 h
[8] = KOPN8, Drug 2 = ART-838 at approximate IC50, 48 h
[9] = KOPN8, Drug 2 = AS at approximate IC50, 48 h
[10] = MOLM14, Drug 2 = ART-838 at approximate IC50, 48 h
[11] = MOLM14, Drug 2 = AS at approximate IC50, 48 h

Row | Structure (SMILES) | cytotoxic efficacy on addition of AS or ART-838 (MOLM14 and KOPN8 cells) | fractional inhibition over Bliss prediction (RCH-ACV; [6]) | fractional inhibition over Bliss prediction (RCH-ACV; [7]) | leukemia cell growth inhibition (MOLM14 cells [1]; MOLM14, 37 nM ABT-199 alone) | growth inhibition (MOLM14 cells [1]; MOLM14, 37 nM ABT-199 together with ART-838 25 nM) [%] | growth inhibition (MOLM14 cells [1]; MOLM14, 37 nM ABT-199 together with AS 825 nM) [%] | fractional inhibition over Bliss prediction (KOPN8; [8]) | fractional inhibition over Bliss prediction (KOPN8; [9]) | No. Cell Lines [2] | cell lines in which combination was synergistic ([2]; plus ART-838) | average inhibition over the Bliss prediction [2] [%] | cell lines in which combination was synergistic ([2]; plus AS) | average inhibition over the Bliss independence prediction ([2]; plus AS) [%] | synergy with AS or ART-838 [2] | fractional inhibition over Bliss prediction (MOLM14; [10]) | fractional inhibition over Bliss prediction (MOLM14; [11]) | induction of apoptosis (MOLM14 cells [3]) | fractional inhibition over Bliss prediction (Kasumi-1) | mitochondrial superoxide (MitoSox MFI) (MOLM14 cells [4]) | efficacy against resistant sub-lines vs parental line [5]
1 | CC1(C)CCC(CN2CCN(c3ccc(C(=O)NS(=O)(=O)c4ccc(NCC5CCOCC5)c([N+](=O)[O-])c4)c(Oc4cnc5[nH]ccc5c4)c3)CC2)=C(c2ccc(Cl)cc2)C1 [ABT-199] | potently increased the efficacy | RCH-ACV (0.35) | RCH-ACV (0.16) | did not inhibit | 100 | 100 | KOPN8 (0.11), | KOPN8 (0.15), | 3/4 | 3/4 | 21 | 3/4 | 17 | Particularly strong synergy | MOLM14 (0.18), | MOLM14 (0.20), | cooperated to induce apoptosis | – | – | –
2 | CN(C)CC[C@H](CSc1ccccc1)Nc1ccc(S(=O)(=O)NC(=O)c2ccc(N3CCN(Cc4ccccc4-c4ccc(Cl)cc4)CC3)cc2)cc1[N+](=O)[O-] [ABT-737] | potently increased the efficacy | RCH-ACV (0.24) | RCH-ACV (0.23) | – | – | – | KOPN8 (0.28), | KOPN8 (0.25), | 4/4 | 4/4 | 24 | 3/4 | 33 | Particularly strong synergy | MOLM14 (0.34), | MOLM14 (0.50), | – | Kasumi-1 (0.11), | – | –
3 | C[C@H]1[C@H](OC(=O)CCC(=O)O)O[C@@H]2O[C@@]3(C)CC[C@H]4[C@H](C)CC[C@@H]1[C@@]24OO3 [AS, artesunate] | – | – | – | – | – | – | – | – | – | – | – | – | – | – | – | – | – | – | increased | as effective

From patent US9918972B2, “Treatment of leukemia with artemisinin derivatives and combinations with other antineoplastic agents” (UNIVERSITY OF MARYLAND, BALTIMORE, priority 2014, dated 2018)
